Data published in patent US20070087988A1, “Hematopoietic progenitor kinase 1 for modulation of an immune response” (New York University, priority 2005, published 2007).
“Also recorded” adds a separate entry of the source.

Test system: HPK1
Experiment: HPK1 immune complex in vitro kinase (IVK) assay, endogenous HPK1 from treated Jurkat cells
Assay type: cell-based, human
Settings: Lck (JCaM1), ZAP-70 (p116), Lat (ANJ-3), SLP-76 (J14) deficient lines, 10 pM PGE2

In the case of `CCCCC[C@H](O)/C=C/[C@H]1[C@H](O)CC(=O)[C@@H]1C/C=C\CCCC(=O)O` [PGE2, prostaglandin E2], the “HPK1 kinase activity upon PGE2 stimulation in signaling-mutant Jurkat lines” value is reported as “did not interfere with the ability of HPK1 to respond; also recorded: all Jurkat cell lines could activate HPK1 kinase activity”.
